The test has as its system HCV replicon. The test can be described thus: Cell-Based HCV Replicon Assay. The note with it: Hepatitis C virus, 72 h; replicon cells, replicon RNA level by real time PCR (Taqman) on day 3; EC90 = concentration to achieve ΔCT=3.2 over baseline; read-out: Biological activity (EC90, HCV replicon assay). The method, then:
To measure cell-based anti-HCV activity of selected compounds of the present invention, replicon cells were seeded at 5000 cells/well in 96-well collagen I-coated Nunc plates in the presence of the test compound. Various concentrations of test compound, typically in 10 serial 2-fold dilutions, were added to the assay mixture, with the starting concentration ranging from 250 µM to 1 μM. The final concentration of DMSO was 0.5%, fetal bovine serum was 5%, in the assay media. Cells were harvested on day 3 by the addition of 1× cell lysis buffer (Ambion cat #8721). The replicon RNA level was measured using real time PCR (Taqman assay). The amplicon was located in 5B. The PCR primers were: 5B.2F, ATGGACAGGCGCCCTGA (SEQ. ID NO. 1); 5B.2R, […] (SEQ. ID NO. 2); the probe sequence was FAM-labeled CACGCCATGCGCTGCGG (SEQ. ID NO. 3). GAPDH RNA was used as endogenous control and was amplified in the same reaction as NS5B (multiplex PCR) using primers and VIC-labeled probe recommended by the manufacturer (PE Applied Biosystem). The real-time RT-PCR reactions were run on ABI PRISM 7900HT Sequence Detection System using the following program: 48° C. for 30 min, 95° C. for 10 min, 40 cycles of 95° C. for 15 sec, 60° C. for 1 min. The ΔCT values (CT-CT5BCTGAPDH) were plotted against the concentration of test compound and fitted to the sigmoid dose-response model using XLfit4 (MDL). EC50 was defined as the concentration of inhibitor necessary to achieve ΔCT=1 over the projected baseline; EC90 the concentration necessary to achieve ΔCT=3.2 over the baseline. Alternatively, to quantitate the absolute amount of replicon RNA, a standard curve was established by including serially diluted T7 transcripts of replicon RNA in the Taqman assay. All Taqman reagents were from PE Applied Biosystems. Such an assay procedure was described in detail in e.g. Malcolm et at, Antimicrobial Agents and Chemotherapy 50: 1013-1020 (2006).
HCV replicon assay data was calculated for selected compounds of the present invention using this method and is provided in the table below.

This is an account of results in patent US9796705B2, “Fused tricyclic compounds and methods of use thereof for the treatment of viral diseases” (Merck Sharp & Dohme Corp., priority 2009, dated 2017).

As for `COC(=O)N[C@H](C(=O)N1CCC[C@H]1c1ncc(-c2cc(C)c(-c3ccc4c(ccc5nc([C@@H]6CCCN6C(=O)[C@@H](NC(=O)OC)C(C)C)[nH]c54)c3)s2)[nH]1)C(C)C` [Compound 2], the EC90 was less than 1 nM.

`COC(=O)N[C@H](C(=O)N1CCCC[C@H]1c1nc2ccc(-c3ccc4c(ccc5nc([C@@H]6CCCN6C(=O)[C@@H](NC(=O)OC)C(C)C)[nH]c54)c3)cc2[nH]1)C(C)C` [Compound 11]: the EC90 was less than 1 nM.

Take `CC(C)(C)OC(=O)N1CC(F)(F)C[C@H]1c1nc2ccc(-c3ccc4c(ccc5nc([C@@H]6CCCN6C(=O)OC(C)(C)C)[nH]c54)c3)cc2[nH]1` [Compound 9]: the EC90 lay in the range of 1 to 999 nM.

As for `COC(=O)N[C@H](C(=O)N1CCC[C@H]1c1nc2ccc(-c3ccc4c(ccc5nc([C@@H]6CCCN6)[nH]c54)c3)cc2[nH]1)C(C)C` [Compound 17], the EC90 lay within 1 to 999 nM.

Take `COC(=O)N[C@H](C(=O)N1CCC[C@H]1c1nc2ccc(-c3ccc4c(ccc5nc([C@@H]6CCCN6C(=O)[C@@H](NC(=O)OC)C(C)C)[nH]c54)c3)cc2[nH]1)C(C)C` [Compound 3]: the EC90 was less than 1 nM.

As to `CC(=O)N1CCC[C@H]1c1nc2ccc(-c3ccc4c(ccc5nc([C@@H]6CCCN6)[nH]c54)c3)cc2[nH]1` [Compound 6], the EC90 was 1 to 999 nM.

For `COC(=O)N[C@H](C(=O)N1CCC[C@H]1c1nc2cc(F)c(-c3ccc4c(ccc5nc([C@@H]6CCCN6C(=O)[C@@H](NC(=O)OC)C(C)C)[nH]c54)c3)cc2[nH]1)C(C)C` [Compound 7], the EC90 is less than 1 nM.

Turning to `COC(=O)N[C@H](C(=O)N1CCC[C@H]1c1ncc(-c2ccc(-c3ccc4c(ccc5nc([C@@H]6CCCN6C(=O)[C@@H](NC(=O)OC)C(C)C)[nH]c54)c3)s2)[nH]1)C(C)C` [Compound 1], the EC90 was less than 1 nM.

With `CC(C)[C@H](NC(=O)OC(C)(C)C)C(=O)N1CC(F)(F)C[C@H]1c1nc2ccc(-c3ccc4c(ccc5nc([C@@H]6CCCN6C(=O)[C@@H](NC(=O)OC(C)(C)C)C(C)C)[nH]c54)c3)cc2[nH]1` [Compound 13], the EC90 is less than 1 nM.

On to `CC(=O)N1CCC[C@H]1c1nc2ccc(-c3ccc4c(ccc5nc([C@@H]6CCCN6C(=O)OC(C)(C)C)[nH]c54)c3)cc2[nH]1` [Compound 4], for which the EC90 was no less than 1000 nM.

Consider `COC(=O)N[C@H](C(=O)N1CCC[C@H]1c1nc2ccc3cc(-c4ccc5nc([C@@H]6CCCN6C(C)=O)[nH]c5c4)ccc3c2[nH]1)C(C)C` [Compound 5], for which the EC90 is less than 1 nM.

Take `CC(C)[C@H](N)C(=O)N1CC(F)(F)C[C@H]1c1nc2ccc(-c3ccc4c(ccc5nc([C@@H]6CCCN6C(=O)[C@@H](N)C(C)C)[nH]c54)c3)cc2[nH]1` [Compound 14]: the EC90 was 1 to 999 nM.

As for `COC(=O)N[C@H](C(=O)N1CC(F)(F)C[C@H]1c1nc2ccc(-c3ccc4c(ccc5nc([C@@H]6CCCN6C(=O)[C@@H](NC(=O)OC)C(C)C)[nH]c54)c3)cc2[nH]1)C(C)C` [Compound 12], the EC90 is less than 1 nM.

In the case of `COC(=O)N[C@H](C(=O)N1CCCC[C@H]1c1nc2ccc(-c3ccc4c(ccc5nc([C@@H]6CCCN6)[nH]c54)c3)cc2[nH]1)C(C)C` [Compound 10], the EC90 was 1 to 999 nM.

With `CC(C)(C)OC(=O)N1CCCC[C@H]1c1nc2ccc(-c3ccc4c(ccc5nc([C@@H]6CCCN6C(=O)OC(C)(C)C)[nH]c54)c3)cc2[nH]1` [Compound 8], the EC90 lay in the range of 1 to 999 nM.

On to `COC(=O)N[C@H](C(=O)N1CCC[C@H]1c1nc2ccc(-c3sc4ccc(-c5ccc6c(ccc7nc([C@@H]8CCCN8C(=O)[C@@H](NC(=O)OC)C(C)C)[nH]c76)c5)cc4c3C)cc2[nH]1)C(C)C` [Compound 16], for which the EC90 was less than 1 nM.

Regarding `Cc1cc(-c2cnc([C@@H]3CCCN3C(=O)OC(C)(C)C)[nH]2)sc1-c1ccc2c(ccc3nc([C@@H]4CCCN4C(=O)OC(C)(C)C)[nH]c32)c1` [Compound 15], the EC90 fell in the range of 1 to 999 nM.
